Results as given in patent US6440935B1, “Inhibition of eucaryotic pathogens and neoplasms and stimulation of fibroblasts and lymphocytes with lytic peptides” (priority 1987, dated 2002).
Like-named read-outs stand apart in the source and are kept apart here. Residues, ends and D or L forms follow the SMILES beside them. No end group written: not given here.

Key:
Saccharomyces cerevisiae = experiment: Effect of lytic peptides on S. cerevisiae (plate count); conditions: 1 hour at 37° C., PBS pH 6.8, 500 at 0 μM
[1] = EL-4 cytotoxicity by chromium release; assay type: cell-based; conditions: for cytotoxicity at 30 min, 100 μM: mouse, EL-4 cells
Description: (§1) The EL-4 cells were then incubated for 30 minutes in the presence of various peptides at different concentrations. Cytotoxicity was taken as a percentage of chromium released (measured in the culture supernatant) relative to the chromium released by EL-4 cells lysed by detergent.
(§2) Similar chromium release data were obtained using the same procedure with a 100 μM concentration of peptide, but with EL-4 cell concentrations of 2×10^6, 10^6, and 5×10^5 cells in 0.5 ml medium.
(§3) The chromium release data was also obtained by using the supernatant from unlabeled EL-4 cells cultured for 30 minutes in the presence of 100 μM peptide as medium for […] EL-4 cultured as described above. The percent cytotoxicity calculated as described above was 20.16 for cecropin SB-37, 19.73 for *cecropin SB-37, 41.96 for Shiva 1, and 106.67 for melittin.

EL-4 cells = experiment: EL-4 cytotoxicity by chromium release; assay type: cell-based; conditions: 30 minutes, 10^6 EL-4 cells
Description: as §1, §2, §3

[2] = test system: Plasmodium falciparum in human red blood cells; conditions: for 3H-Hypoxanthine Uptake: 24 hours
mammary carcinoma = experiment: In vivo effect on murine mammary carcinoma; design: species or system BALB/c mouse; conditions: 1.76 mg (88 mg/kg) daily, three days, injected directly into the carcinoma
Description: One BALB/c mouse was given daily injections of 1.76 mg (88 mg/kg) Shiva 1 in PBS for three consecutive days as described in the foregoing examples.

[3] = S. intermedius 19930 viability in lytic peptide/lysozyme; conditions: Viability (%), lysozyme at ten times
[4] = EL-4 cell viability by trypan blue exclusion; assay type: cell-based; conditions: one hour, 95% at 0 μM
Description: EL-4 lymphoma cells were suspended in RPMI 1640 at 5,000,000/ml with 500,000 cells per well. Various concentrations of cecropin SB-37 and Shiva 1 were added and the wells incubated at 37° C. in a 5% CO2 atmosphere for one hour. Viability was determined by microscopic observation for trypan blue exclusion.

[5] = test system: T. cruzi intracellular amastigotes in Vero cells; experiment: In vitro effect on T. cruzi intracellular amastigotes in Vero cells; assay type: cell-based, Trypanosoma cruzi; conditions: one hour period, relative to no peptide
Description: Vero cells at 10^5 cells/ml in MEM-FBS were mixed with Trypanosoma Cruzi in the trypomastigote stage at 10^5 cells/ml in the same medium at a 1:1 ratio of Vero cells to trypomastigotes. The mixture of Vero cells and trypomastigotes was cultured at 37° C. in a 5% CO2 atmosphere in microscope slide chambers. At 24 hours, cecropin SB-37 was added to the chambers, except for a set of controls, at a final concentration of 100 μM. […]

Brucella abortus [6] = assay type: in vivo, BALB/C mice; conditions: 0.176 mg/day for 4 days from day 12 post infection; sacrificed day 16; control 8.15 × 10^3
E. coli E/2/64 = experiment: Lysozyme/cecropin synergism against E. coli (plate growth)
Brucella abortus [7] = assay type: cell-based; conditions: 50 μM
[8] = test system: Pseudomonas syringae pv. tabaci; experiment: Plant pathogen LD50 in cecropin SB-37/lysozyme; assay type: cell-based; conditions: incubation at 30° C.
[9] = test system: Xanthomonas campestris pv. campestris; experiment: Plant pathogen LD50 in cecropin SB-37/lysozyme; assay type: cell-based; conditions: incubation at 30° C.
[10] = test system: Erwinia caratovora subsp. carotova; experiment: Plant pathogen LD50 in cecropin SB-37/lysozyme; assay type: cell-based; conditions: incubation at 30° C.
eucaryotes = experiment: Lytic activity, general statements of the description; conditions: general statement, no test described
[11] = 100 μM, 2 × 10^6 cells per 0.5 ml, read-out: Percent Cytotoxicity
[12] = supernatant from unlabeled EL-4 cells cultured 30 minutes with 100 μM peptide used as medium for labeled EL-4, read-out: percent cytotoxicity

CC[C@H](C)[C@H](NC(=O)CN)C(=O)NCC(=O)N[C@@H](C)C(=O)N[C@H](C(=O)N[C@@H](CC(C)C)C(=O)N[C@@H](CCCCN)C(=O)N[C@H](C(=O)N[C@@H](CC(C)C)C(=O)N[C@H](C(=O)N[C@H](C(=O)NCC(=O)N[C@@H](CC(C)C)C(=O)N1CCC[C@H]1C(=O)N[C@@H](C)C(=O)N[C@@H](CC(C)C)C(=O)N[C@H](C(=O)N[C@@H](CO)C(=O)N[C@@H](Cc1c[nH]c2ccccc12)C(=O)N[C@H](C(=O)N[C@@H](CCCCN)C(=O)N[C@@H](CCCNC(=N)N)C(=O)N[C@@H](CCCCN)C(=O)N[C@@H](CCCNC(=N)N)C(=O)N[C@@H](CCC(N)=O)C(=O)N[C@@H](CCC(N)=O)C(N)=O)[C@@H](C)CC)[C@@H](C)CC)[C@@H](C)O)[C@@H](C)O)C(C)C)C(C)C [Melittin, reference compound]
Plate Count (Thousands) (Saccharomyces cerevisiae; 5 μM): 260 Thousands | Plate Count (Thousands) (Saccharomyces cerevisiae; 50 μM): 0 Thousands | cytotoxicity at 30 min, 100 μM [1, 11]: 105% | cytotoxicity at 30 min, 100 μM [1, 12]: 107% | Percent Cytotoxicity (chromium release vs detergent-lysed cells) (EL-4 cells; 10 μM): 109.65% | Percent Cytotoxicity (chromium release vs detergent-lysed cells) (EL-4 cells; 25 μM): 106.65% | Percent Cytotoxicity (chromium release vs detergent-lysed cells) (EL-4 cells; 50 μM): 106.81% | Percent Cytotoxicity (chromium release vs detergent-lysed cells) (EL-4 cells; 100 μM): 102.43%

CC[C@H](C)[C@H](NC(=O)CNC(=O)[C@H](CCC(N)=O)NC(=O)[C@H](CCCCN)NC(=O)[C@@H](NC(=O)[C@H](CCC(N)=O)NC(=O)[C@H](CCCCN)NC(=O)CNC(=O)[C@@H](NC(=O)[C@H](CCCNC(=N)N)NC(=O)[C@H](CC(=O)O)NC(=O)[C@@H](NC(=O)[C@H](CCCNC(=N)N)NC(=O)[C@H](CCCNC(=N)N)NC(=O)[C@H](Cc1ccccc1)NC(=O)[C@H](CC(C)C)NC(=O)[C@H](CCCNC(=N)N)NC(=O)[C@H](Cc1c[nH]c2ccccc12)NC(=O)[C@H](CCCNC(=N)N)NC(=O)[C@@H]1CCCN1C(=O)[C@@H](N)CCSC)[C@@H](C)CC)C(C)C)[C@@H](C)CC)C(=O)N[C@@H](CC(C)C)C(=O)N[C@@H](CCCNC(=N)N)C(=O)N[C@@H](C)C(=O)NCC(=O)N1CCC[C@H]1C(=O)N[C@@H](C)C(=O)N[C@H](C(=O)N[C@@H](C)C(=O)N[C@@H](CC(C)C)C(=O)N[C@H](C(=O)NCC(=O)N[C@@H](CC(=O)O)C(=O)N[C@@H](C)C(=O)N[C@@H](CCCNC(=N)N)C(=O)N[C@@H](C)C(=O)N[C@H](C(=O)NCC(N)=O)C(C)C)C(C)C)[C@@H](C)CC [Shiva 1] (H-MPRWRLFRRIDRVGKQIKQGILRAGPAIALVGDARAVG-NH2)
LD50 (concentration for 50% reduction in 3H-hypoxanthine uptake) ([2]; 24-hour period, relative to untreated infected red blood cells): about 10 μM | immediate cause of death at autopsy (mammary carcinoma): shock | outcome following the third injection (mammary carcinoma; one mouse): died almost immediately | viability at 0.01 µM ([3]; peptide concentration 0.01 μM): 100% | viability at 0.1 µM ([3]; peptide concentration 0.1 μM): 81.8% | viability at 0.5 µM ([3]; peptide concentration 0.5 μM): 65% | viability at 1 µM ([3]; peptide concentration 1.0 μM): 42.1% | viability at 5 µM ([3]; peptide concentration 5.0 μM): 35.2% | viability ([3]; peptide concentration 10. μM): 1.2% | viability ([3]; peptide concentration 50. μM): 0% | viability ([4]; 10 μM): 85% | viability ([4]; 25 μM): 60% | viability ([4]; 50 μM): 50% | viability ([4]; 100 μM): 10% | viability: 0% | viability at 0.01 µM: 100% | viability at 0.1 µM: 69.6% | viability at 1 µM: 37.9% | viability at 5 µM: 1.5% | viability at 7.5 µM: 0.1% | LD50 (concentration for 50% reduction in number of infected Vero cells) [5]: about 9 μM | cytotoxicity at 100 µM [1, 11]: 84.9% | cytotoxicity at 100 µM ([1]; 100 μM, 5 × 10^5 cells per 0.5 ml, read-out: Percent Cytotoxicity): 98.7% | cytotoxicity at 100 µM ([1]; 100 μM, 10^6 cells per 0.5 ml, read-out: Percent Cytotoxicity): 89.2% | cytotoxicity [1, 12]: 42% | Percent Cytotoxicity (chromium release vs detergent-lysed cells) (EL-4 cells; 10 μM): 0.37% | Percent Cytotoxicity (chromium release vs detergent-lysed cells) (EL-4 cells; 25 μM): 16.7% | Percent Cytotoxicity (chromium release vs detergent-lysed cells) (EL-4 cells; 50 μM): 42.73% | Percent Cytotoxicity (chromium release vs detergent-lysed cells) (EL-4 cells; 100 μM): 82.35%

CN(C)[C@@H]1C(O)=C(C(N)=O)C(=O)[C@@]2(O)C(O)=C3C(=O)c4c(O)cccc4[C@@](C)(O)[C@H]3C[C@@H]12 [Tetracycline, tetracycline]
Concentration of Brucella abortus in spleen tissue (Brucella abortus [6]): 4.4 × 10^3 Number per gram of spleen

Cecropin B: naturally occurring potent bacteriolytic peptide obtainable from insects; sequence in Table 1 (KWKVFKKIEKMGRNIRNGIVKAGPAIAVLGEAKAL; ends and bridges not checked; UniProt P01508 27-61, looked up)
3H-Hypoxanthine Uptake ([2]; 1 μM, P. falciparum 0.0625 PPRC): 380 cpm | 3H-Hypoxanthine Uptake ([2]; 1 μM, P. falciparum 0.125 PPRC): 565 cpm | 3H-Hypoxanthine Uptake ([2]; 1 μM, P. falciparum 0.25 PPRC): 1293 cpm | 3H-Hypoxanthine Uptake ([2]; 1 μM, P. falciparum 0.5 PPRC): 2860 cpm | 3H-Hypoxanthine Uptake ([2]; 20 μM, P. falciparum 0.0625 PPRC): 405 cpm | 3H-Hypoxanthine Uptake ([2]; 20 μM, P. falciparum 0.125 PPRC): 495 cpm | 3H-Hypoxanthine Uptake ([2]; 20 μM, P. falciparum 0.25 PPRC): 1066 cpm | 3H-Hypoxanthine Uptake ([2]; 20 μM, P. falciparum 0.5 PPRC): 2333 cpm | 3H-Hypoxanthine Uptake ([2]; 200 μM, P. falciparum 0.0625 PPRC): 25 cpm | 3H-Hypoxanthine Uptake ([2]; 200 μM, P. falciparum 0.125 PPRC): 20 cpm | 3H-Hypoxanthine Uptake ([2]; 200 μM, P. falciparum 0.25 PPRC): 40 cpm | 3H-Hypoxanthine Uptake ([2]; 200 μM, P. falciparum 0.5 PPRC): 50 cpm | Plate Count (Thousands) (Saccharomyces cerevisiae; 5 μM): 500 Thousands | Plate Count (Thousands) (Saccharomyces cerevisiae; 50 μM): 75 Thousands | Plate Count (Thousands) (Saccharomyces cerevisiae; 750 μM): 0 Thousands | growth of E. coli (plate counts) (E. coli E/2/64; 5 μM, 90 minutes at room temperature): no growth of E. coli | growth of E. coli (E. coli E/2/64; one nanomolar and one micromolar): positive E. coli growth | Results (growth of Brucella abortus) (Brucella abortus [7]): No growth

Lysozyme
LD50 [8]: >1000 µM | Viability (%) (S. intermedius 19930; 0.01 µM): 100% | Viability (%) (S. intermedius 19930; 0.1 µM): 100% | Viability (%) (S. intermedius 19930; 0.5 µM): 81.3% | Viability (%) (S. intermedius 19930; 1 µM): 53% | Viability (%) (S. intermedius 19930; 5 µM): 49.5% | LD50 [9]: >1000 µM | LD50 (Pseudomonas solanacearum): >1000 µM | LD50 [10]: >1000 µM | Viability (%) (Pseudomonas aeruginosa): 0.4% | Viability (%) (Pseudomonas aeruginosa; 0.01 µM): 100% | Viability (%) (Pseudomonas aeruginosa; 0.1 µM): 82.2% | Viability (%) (Pseudomonas aeruginosa; 1 µM): 52.1% | Viability (%) (Pseudomonas aeruginosa; 5 µM): 7.9% | Viability (%) (Pseudomonas aeruginosa; 7.5 µM): 0.6%

cecropin A
lytic activity compared with other lytic peptides (eucaryotes): about as lytically active as cecropin B and SB-37
